In article PMC10053623, “Water-Soluble Fullerene C60 Derivatives Are Effective Inhibitors of Influenza Virus Replication” (Microorganisms, 2023):

Key:
[1] = in vitro; conditions: dog
[2] = system: Influenza A/Puerto Rico/8/34 (H1N1) virus; assay: microbe, parasite or virus in culture; assay type: cell-based

CCC(CC)O[C@@H]1C=C(C(=O)O)C[C@H](N)[C@H]1NC(C)=O [Oseltamivir carboxylate]
CC50 at 72 h [1]: > 200000 nM
SI, selectivity index, the ratio of CC50 to IC50 [2]: >667
IC50 ([2]; Influenza A virus, H1N1, MDCK, 72 h, read-out: IC50, inhibitory concentration causing a 50% decrease in virus-induced cell death): 300 ± 20 nM
